Measurements as given in ChEMBL document CHEMBL5344426, “Imidazolone as an Amide Bioisostere in the Development of β-1,3-N-Acetylglucosaminyltransferase 2 (B3GNT2) Inhibitors” (J Med Chem, 2023).
In brackets after ≈: the same amount, converted by molar mass.

What was measured:
[1] = biological target: T1, N-acetyllactosaminide beta-1,3-N-acetylglucosaminyltransferase 2 (Homo sapiens, UniProt Q9NY97); experiment: Inhibition of B3GNT2 (unknown origin) using N-acetyl-lactosamine and UDP-GlcNAc as substrate incubated for 1.5 to 2 hrs by UDP-Glo based analysis
T1 sequence (Q9NY97 whole entry): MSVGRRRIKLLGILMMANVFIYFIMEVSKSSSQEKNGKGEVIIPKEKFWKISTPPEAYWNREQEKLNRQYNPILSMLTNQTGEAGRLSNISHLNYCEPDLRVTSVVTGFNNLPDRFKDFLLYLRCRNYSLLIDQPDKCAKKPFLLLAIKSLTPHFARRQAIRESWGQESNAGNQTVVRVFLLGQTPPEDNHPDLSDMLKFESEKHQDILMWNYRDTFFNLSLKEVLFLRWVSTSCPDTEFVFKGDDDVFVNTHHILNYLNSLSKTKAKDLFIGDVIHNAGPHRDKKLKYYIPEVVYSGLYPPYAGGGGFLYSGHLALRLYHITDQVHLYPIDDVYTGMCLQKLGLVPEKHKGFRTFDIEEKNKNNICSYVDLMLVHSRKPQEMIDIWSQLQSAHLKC

[2] = test system: Jurkat; experiment: Antiproliferative activity against human Jurkat cells assessed as inhibition of cell growth incubated for 3 days by SYTOX blue staining based flow cytometry analysis; assay type: functional; settings: 72 h
[3] = biological target: N-acetyllactosaminide beta-1,3-N-acetylglucosaminyltransferase 4 (Homo sapiens, UniProt Q9C0J1); experiment: Inhibition of B3GNT4 (unknown origin) using Beta-lactose and UDP-GlcNAc as substrate incubated for 1.5 to 2 hrs by UDP-Glo based analysis
[4] = Solubility of compound in PBS incubated for 48 to 72 hrs by LC-MS analysis; assay type: physicochemical; settings: time 48-72 hrs
[5] = Volume of distribution at steady state in mouse at 5 mg/kg, po; assay type: ADME, organism-based; settings: in vivo
[6] = Clearance in mouse at 5 mg/kg, po; assay type: ADME, organism-based; settings: in vivo; for CL: po, 5 mg/kg
[7] = Microsomal stability in rat liver microsome assessed as intrinsic clearance at 1 uM incubated for 20 mins in presence of NADPH by LC-MS/MS analysis; assay type: ADME; settings: liver microsomes, read-out: CLH
[8] = Microsomal stability in human liver microsome assessed as intrinsic clearance at 1 uM incubated for 20 mins in presence of NADPH by LC-MS/MS analysis; assay type: ADME; settings: liver microsomes, read-out: CLH
[9] = Solubility of compound in FeSSIF incubated for 48 to 72 hrs by LC-MS analysis; assay type: physicochemical; settings: time 48-72 hrs
[10] = Oral bioavailability in mouse at 5 mg/kg; assay type: ADME, organism-based; settings: in vivo
[11] = Solubility of compound in HCL incubated for 48 to 72 hrs by LC-MS analysis; assay type: physicochemical; settings: time 48-72 hrs
[12] = Microsomal stability in mouse liver microsome assessed as intrinsic clearance at 1 uM incubated for 20 mins in presence of NADPH by LC-MS/MS analysis; assay type: ADME; settings: liver microsomes, read-out: CLH
[13] = Half life in mouse at 5 mg/kg, po; assay type: ADME, organism-based; settings: in vivo; for t1/2: po, 5 mg/kg
[14] = Permeability of compound across apical to basolateral in MDCK-II cells incubated for 2 hrs by LC-MS/MS analysis; assay type: ADME, cell-based, Canis lupus familiaris; settings: dog, read-out: permeability

Chain of N-acetyllactosaminide beta-1,3-N-acetylglucosaminyltransferase 4 (Q9C0J1 whole entry): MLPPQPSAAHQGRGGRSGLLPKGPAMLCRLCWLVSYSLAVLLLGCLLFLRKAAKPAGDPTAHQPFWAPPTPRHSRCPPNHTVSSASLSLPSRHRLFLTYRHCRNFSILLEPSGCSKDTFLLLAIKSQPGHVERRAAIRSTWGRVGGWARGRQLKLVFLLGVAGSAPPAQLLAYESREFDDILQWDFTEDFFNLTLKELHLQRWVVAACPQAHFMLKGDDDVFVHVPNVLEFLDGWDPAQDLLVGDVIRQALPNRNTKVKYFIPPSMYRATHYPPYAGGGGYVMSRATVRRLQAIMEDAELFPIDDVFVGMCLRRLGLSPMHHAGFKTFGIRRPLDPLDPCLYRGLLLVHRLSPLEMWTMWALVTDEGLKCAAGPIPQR

SMILES	IC50 ([1]; read-out: IC50) [µM]	IC50 [3] [µM]	IC50 [2] [µM]	other results
C[C@@H](n1c(=O)[nH]c2ccc(C3=NOC(C)(c4ccccc4)N3)cc21)C(C)(C)C (stereo partly specified)	0.9		28	
Cc1ccc([C@H](C)NC(=O)c2ccc3[nH]c(=O)n([C@H](C)C(C)(C)C)c3c2)nc1	0.093	> 250	8.8	
C[C@H](NC(=O)c1ccc2[nH]c(=O)n([C@H](C)C(C)(C)C)c2c1)c1cnc(Cl)nc1	0.076	> 250	15.3	
C[C@H](NC(=O)c1ccc2[nH]c(=O)n([C@H](C)C(C)(C)C)c2c1)c1ccc(Br)cn1	0.1	169	12.5	
Cc1ccc([C@]2(C)NC(c3ccc4[nH]c(=O)n([C@H](C)C(C)(C)C)c4c3)=NC2=O)cn1	0.029		5.1	
C[C@H](NC(=O)c1ccc2[nH]c(=O)n([C@H](C)C(C)(C)C)c2c1)c1ccc(C(F)(F)F)cn1	0.23	> 250	66.1	
CC(C)NC(=O)c1ccc2[nH]c(=O)n([C@H](C)C(C)(C)C)c2c1	2.9	> 250		
C[C@@H](n1c(=O)[nH]c2ccc(C3=NC(=O)[C@@](C)(c4ccc(Cl)cn4)N3)cc21)C(C)(C)C	0.51			
C[C@@H](n1c(=O)[nH]c2ccc(C3=N[C@@](C)(c4cc5ccccc5[nH]4)NC3=O)cc21)C(C)(C)C	0.055		9.9	
C[C@@H](n1c(=O)[nH]c2ccc(C(=O)NCc3ccc(Cl)cc3)cc21)C(C)(C)C	0.61	> 250	67.8	
C[C@@H](n1c(=O)[nH]c2ccc(C3=NC(=O)[C@](C)(c4cnc(C(F)(F)F)nc4)N3)cc21)C(C)(C)C	0.009	> 250	1.1	solubility [4]: 154 µM (≈ 70.9 µg/mL); Vdss [5]: 2.6 L/kg; CL [6]: 5 mL/min/kg; microsomal CLint at 1 µM [7]: 15 µL/min/mg; microsomal CLint at 1 µM [8]: 14 µL/min/mg; solubility [9]: 485 µM (≈ 223 µg/mL); bioavailability [10]: 54%; solubility [11]: 329 µM (≈ 151 µg/mL); microsomal CLint at 1 µM [12]: 15 µL/min/mg; t1/2 [13]: 1.4 h; Papp A→B at 2 h [14]: 17 ×10⁻⁶ cm/s
C[C@@H](n1c(=O)[nH]c2ccc(C3=C[C@@](C)(c4cnc(C(F)(F)F)nc4)OC3=O)cc21)C(C)(C)C	0.028		5.6	
C[C@@H](n1c(=O)[nH]c2ccc(C3=NC(c4ccc(Cl)cn4)(c4ccc(Cl)cn4)NC3=O)cc21)C(C)(C)C	0.2		37.1	
C[C@@H](n1c(=O)[nH]c2ccc(C3=NC(=O)[C@](C)(c4ccc(C(F)(F)F)cn4)N3)cc21)C(C)(C)C	0.03		23.8	
C[C@@H](n1c(=O)[nH]c2ccc(C(=O)O)cc21)C(C)(C)C	0.26	122	> 85	
C[C@@H](n1c(=O)[nH]c2ccc(C3=N[C@@](C)(c4ccc5nccn5c4)NC3=O)cc21)C(C)(C)C	0.37		38.2	
C[C@@H](n1c(=O)[nH]c2ccc(C3=NC(C)(c4cnc(C(F)(F)F)nc4)C(=O)O3)cc21)C(C)(C)C (stereo partly specified)				IC50 [1]: Not Active
C[C@@H](n1c(=O)[nH]c2ccc(C3=NC(=O)[C@](C)(c4ncc(Cl)cn4)N3)cc21)C(C)(C)C	0.082		16.2	
CC(C)Cn1c(=O)[nH]c2ccc(C(=O)O)cc21	9.1	> 250		

Continued, in another order:

IC50 ([1]; read-out: IC50) [µM]	IC50 [3] [µM]	SMILES	IC50 [2] [µM]	other results
0.6	> 250	C[C@@H](n1c(=O)[nH]c2ccc(C3=NC(=O)[C@](C)(c4ccccc4)N3)cc21)C(C)(C)C	> 85	
0.053		C[C@@H](n1c(=O)[nH]c2ccc(C3=N[C@]4(CCc5cc(Br)ccc54)NC3=O)cc21)C(C)(C)C	6.4	
2.72	> 250	C[C@@H](NC(=O)c1ccc2[nH]c(=O)n([C@H](C)C(C)(C)C)c2c1)c1ccc(Cl)cc1		
0.096		Cc1ccc([C@]2(C)NC(c3ccc4[nH]c(=O)n([C@H](C)C(C)(C)C)c4c3)=NC2=O)nc1	13.8	
0.07	> 250	C[C@H](NC(=O)c1ccc2[nH]c(=O)n([C@H](C)C(C)(C)C)c2c1)c1cnc(C(F)(F)F)nc1	17.2	solubility [4]: 155 µM (≈ 67.5 µg/mL); Vdss [5]: 1.8 L/kg; CL/F [6]: 13.3 mL/min/kg; microsomal CLint at 1 µM [7]: 42 µL/min/mg; microsomal CLint at 1 µM [8]: 14 µL/min/mg; solubility [9]: 298 µM (≈ 130 µg/mL); bioavailability [10]: 28%; solubility [11]: 180 µM (≈ 78.4 µg/mL); microsomal CLint at 1 µM [12]: 61 µL/min/mg; half-life [13]: 1.9 h; Papp A→B at 2 h [14]: 21 ×10⁻⁶ cm/s
1.01		Cc1[nH]c2ccc([C@]3(C)N=C(c4ccc5[nH]c(=O)n([C@H](C)C(C)(C)C)c5c4)C(=O)N3)cc2c1C		
0.29	> 250	C[C@H](NC(=O)c1ccc2[nH]c(=O)n([C@H](C)C(C)(C)C)c2c1)c1ccc(Cl)cc1	47.2	
0.069		C[C@@H](n1c(=O)[nH]c2ccc(C3=N[C@@](C)(c4ccc(Cl)cn4)NC3=O)cc21)C(C)(C)C	8.2	
0.024	> 250	Cc1ncc([C@]2(C)NC(c3ccc4[nH]c(=O)n([C@H](C)C(C)(C)C)c4c3)=NC2=O)cn1	4.2	
0.89	> 250	C[C@H](NC(=O)c1ccc2[nH]c(=O)n([C@H](C)C(C)(C)C)c2c1)c1cnc(Cl)cn1	23.5	
0.06	165	Cc1[nH]c2cc(NC(=O)c3ccc4[nH]c(=O)n([C@H](C)C(C)(C)C)c4c3)ccc2c1C	3.6	
0.024		C[C@@H](n1c(=O)[nH]c2ccc(C3=N[C@@](C)(c4cnc(C(F)(F)F)nc4)NC3=O)cc21)C(C)(C)C	3.8	
26.6	> 250	C[C@@H](n1c(=O)[nH]c2ccc(C(=O)N3CCOCC3)cc21)C(C)(C)C		
0.23	> 250	C[C@H](NC(=O)c1ccc2[nH]c(=O)n([C@H](C)C(C)(C)C)c2c1)c1ccc(Cl)cn1	32	
0.12	> 250	Cc1ncc([C@H](C)NC(=O)c2ccc3[nH]c(=O)n([C@H](C)C(C)(C)C)c3c2)cn1	22.4	
0.008		C[C@@H](n1c(=O)[nH]c2ccc(C3=NC(=O)[C@](C)(c4ccc(C(F)(F)F)nc4)N3)cc21)C(C)(C)C	2.3	solubility [4]: 66 µM (≈ 30.3 µg/mL); Vdss [5]: 3.4 L/kg; CL [6]: 5 mL/min/kg; microsomal CLint at 1 µM [7]: 14 µL/min/mg; microsomal CLint at 1 µM [8]: 34 µL/min/mg; solubility [9]: 500 µM (≈ 230 µg/mL); bioavailability [10]: 66%; solubility [11]: 311 µM (≈ 143 µg/mL); microsomal CLint at 1 µM [12]: 14 µL/min/mg; t1/2 [13]: 1.5 h; Papp A→B at 2 h [14]: 15 ×10⁻⁶ cm/s
0.039		C[C@@H](n1c(=O)[nH]c2ccc(C3=N[C@](c4ccc(Cl)nc4)(c4ccccn4)NC3=O)cc21)C(C)(C)C	5.5	
0.026		C[C@@H](n1c(=O)[nH]c2ccc(C3=N[C@@](c4cccnc4)(c4nnc[nH]4)NC3=O)cc21)C(C)(C)C	> 85	
0.066		C[C@@H](n1c(=O)[nH]c2ccc(C3=NC(=O)[C@](C)(c4ccc(Cl)cn4)N3)cc21)C(C)(C)C	8.1	
0.82	> 250	C[C@@H](n1c(=O)[nH]c2ccc(C(=O)Nc3ccccc3)cc21)C(C)(C)C	38.8	
0.84	> 250	C[C@@H](n1c(=O)[nH]c2ccc(C(=O)NC(C)(C)c3ccc(Cl)cc3)cc21)C(C)(C)C		
0.43	> 250	C[C@H](NC(=O)c1ccc2[nH]c(=O)n([C@H](C)C(C)(C)C)c2c1)c1ncc(Cl)cn1	29.2	
0.013		C[C@@H](n1c(=O)[nH]c2ccc(C3=N[C@@](Cc4ccccc4)(c4cnc(C(F)(F)F)nc4)NC3=O)cc21)C(C)(C)C	4	
